This passage reports EC50 results from BindingDB's records for doi:10.7270/Q2Z31X2S (Nmmlsc, 2009).

Cell division control protein 42 homolog, sequence (P60953 whole entry): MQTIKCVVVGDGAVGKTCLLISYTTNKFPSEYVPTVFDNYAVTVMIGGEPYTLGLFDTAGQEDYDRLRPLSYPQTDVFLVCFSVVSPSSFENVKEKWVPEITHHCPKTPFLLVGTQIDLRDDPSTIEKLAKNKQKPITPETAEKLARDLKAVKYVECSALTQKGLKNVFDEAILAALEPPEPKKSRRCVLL

The first experiment concerns the target Cell division control protein 42 homolog (Homo sapiens, UniProt P60953). As to the kind of experiment: wild-type Cdc42 GTP-binding inhibitors, SAR follow-up, biochemical, bead-based multiplex flow cytometry, additional SAR set (AID 2022).
Settings: not given
(In general: In flow cytometry, cells or beads pass a laser one at a time.)
As usually defined, the EC50 is the concentration giving half of the maximal effect. The low end stands for higher potency in that assay, the high end for lower potency in that assay. The molecule `O=C1Nc2c(Cl)cccc2C1=C1Nc2ccccc2C1=O` gave an EC50 of 0.027 µM. This lies in the double-digit nanomolar range.

With `O=C1Nc2c(Br)cccc2C1=C1Nc2ccccc2C1=O`, the EC50 was over 30 µM.

`O=C1Nc2c(F)cccc2C1=C1Nc2ccccc2C1=O`: the EC50 was over 30 µM.

Turning to `O=C1NC(=O)/C(=C2/C(=O)Nc3ccccc32)N1`, the EC50 is over 30 µM.

On to `O=C1Nc2cccc(Br)c2/C1=C1/Cc2ccccc2C1=O`, for which the EC50 is over 30 µM.

Consider `O=C1Nc2ccc(Br)cc2C1=C1Nc2ccccc2C1=O`, for which the EC50 was over 30 µM.

`COc1ccc(S(=O)(=O)n2c(N)c(C#N)c(-c3ccccc3)c2C(=O)c2ccc(Br)cc2)cc1` gave an EC50 of over 30 µM.

In turn, `O=[N+]([O-])c1ccc(C#Cc2ccccc2)cc1` had an EC50 of over 30 µM.

With `O=C(C#Cc1ccccc1)c1ccc(OC(F)(F)F)cc1`, the EC50 is over 30 µM.

Molecule `COc1ccc(C(=O)C#Cc2ccccc2)cc1` [1-(4-methoxyphenyl)-3-phenyl-2-propyn-1-one] registered an EC50 of over 30 µM.

In the case of `O=C(C#Cc1ccccc1)c1ccc([N+](=O)[O-])cc1` [1-(4-nitrophenyl)-3-phenyl-2-propyn-1-one], the EC50 was over 30 µM.

In turn, `CC(C(=O)O)c1cccc(C(=O)c2ccccc2)c1` (stereo not given) [2-(3-benzoylphenyl)propanoic acid] displayed an EC50 of over 30 µM.

`COc1ccc2cc(CC(=O)O)ccc2c1` [2-(6-methoxynaphthalen-2-yl)ethanoic acid] gave an EC50 of over 30 µM.

Regarding `CC(=O)Oc1ccccc1C(=O)O` [2-(acetyloxy)benzoic acid], the EC50 is over 30 µM.

On to `O=C1Nc2ccccc2/C1=C1/Nc2ccccc2C1=O` [2-[(3Z)-2-oxo-2,3-dihydro-1H-indol-3-ylidene]-2,3-dihydro-1H-indol-3-one], for which the EC50 is over 30 µM.

With `CCCCS(=O)(=O)n1c(N)c(C#N)c(-c2cc(OC)c(OC)c(OC)c2)c1C(=O)c1ccccc1` [2-amino-5-benzoyl-1-butylsulfonyl-4-(3,4,5-trimethoxyphenyl)-3-pyrrolecarbonitrile], the EC50 was over 30 µM.

`COc1ccc(S(=O)(=O)n2c(N)c(C#N)c(-c3cncc(Br)c3)c2C(=O)c2ccccc2)cc1` [2-amino-5-benzoyl-4-(5-bromo-3-pyridinyl)-1-(4-methoxyphenyl)sulfonyl-3-pyrrolecarbonitrile] had an EC50 of 22.8 µM.

As for `COc1cc(-c2c(C#N)c(N)n(S(=O)(=O)c3c(C(C)C)cc(C(C)C)cc3C(C)C)c2C(=O)c2ccccc2)cc(OC)c1OC` [2-azanyl-5-(phenylcarbonyl)-4-(3,4,5-trimethoxyphenyl)-1-[2,4,6-tri(propan-2-yl)phenyl]sulfonyl-pyrrole-3-carbonitrile], the EC50 was over 30 µM.

`O=C1N=c2ccccc2=C1c1[nH]c2ccccc2c1NO` [3-[3-(hydroxyamino)-1H-indol-2-yl]-2-indolone] gave an EC50 of over 30 µM.

The molecule `O=C(C#Cc1ccccc1)c1cccnc1` [3-phenyl-1-pyridin-3-ylprop-2-yn-1-one] showed an EC50 of over 30 µM.

For `COC(=O)c1ccc(C(=O)C#Cc2ccccc2)cc1` [4-(1-oxo-3-phenylprop-2-ynyl)benzoic acid methyl ester], the EC50 is over 30 µM.

`N#Cc1ccc(C(=O)C#Cc2ccccc2)cc1` [4-(3-phenylprop-2-ynoyl)benzenecarbonitrile] yielded an EC50 of over 30 µM.

As to `O=C1N=c2ccc(Br)cc2=C1c1[nH]c2ccccc2c1NO` [5-bromanyl-3-[3-(oxidanylamino)-1H-indol-2-yl]indol-2-one], the EC50 is over 30 µM.

`O=C1N=c2c(Br)cccc2=C1c1[nH]c2ccccc2c1NO` [7-bromanyl-3-[3-(oxidanylamino)-1H-indol-2-yl]indol-2-one]: the EC50 is over 30 µM.

For the molecule `O=C1N=c2c(Cl)cccc2=C1c1[nH]c2ccccc2c1NO` [7-chloro-3-[3-(hydroxyamino)-1H-indol-2-yl]-2-indolone], the EC50 was over 30 µM.

The molecule `O=C1N=c2c(F)cccc2=C1c1[nH]c2ccccc2c1NO` [7-fluoro-3-[3-(hydroxyamino)-1H-indol-2-yl]-2-indolone] registered an EC50 of 28.1 µM. This counts as double-digit micromolar.

`O=C1Nc2c(Br)cccc2/C1=C1/Cc2ccccc2C1=O` [(3E)-7-bromo-3-(3-oxo-1H-inden-2-ylidene)-1H-indol-2-one] showed an EC50 of over 30 µM.

In the case of `O=C1NC(=S)N/C1=C1\C(=O)Nc2ccccc21` [(3Z)-3-(5-oxo-2-sulfanylideneimidazolidin-4-ylidene)-1H-indol-2-one], the EC50 was over 30 µM.

Regarding `O=C1Nc2ccccc2/C1=C1/Cc2ccccc2C1=O` [UNM-0000305763], the EC50 is over 30 µM.

In the case of `COc1ccc(S(=O)(=O)n2c(N)c(C#N)c(-c3cc(Br)c(OC)c(OC)c3)c2C(=O)c2ccccc2)cc1` [UNM-0000305782], the EC50 is over 30 µM.

The molecule `O=C(C#Cc1ccccc1)c1ccccc1[N+](=O)[O-]` [UNM-0000306038] yielded an EC50 of over 30 µM.

The molecule `O=C(C#Cc1ccccc1)c1ccccc1` [UNM-0000306039] showed an EC50 of over 30 µM.

Turning to `O=C(C#Cc1ccccc1)c1ccc(Cl)cc1` [UNM-0000306055], the EC50 is over 30 µM.

For the molecule `O=C(C#Cc1ccccc1)c1ccc(F)cc1` [UNM-0000306059], the concentration giving a half-maximal response (EC50) was over 30 µM.

For `CC1=C(CC(=O)O)c2cc(F)ccc2/C1=C/c1ccc([S+](C)[O-])cc1` (stereo not given) [UNM-0000306136], the EC50 is over 30 µM.

For the molecule `C[C@@H](C(=O)O)c1cccc(Oc2ccccc2)c1` [calcium;2-(3-phenoxyphenyl)propanoic acid;hydrate], the EC50 was over 30 µM.

Regarding `CSc1ccc(/C=C2/C(C)=C(CC(=O)O)c3cc(F)ccc32)cc1` [{6-Fluoro-2-methyl-3-[1-(4-methylsulfanyl-phenyl)-meth-(E)-ylidene]-3H-inden-1-yl}-acetic acid], the EC50 was over 30 µM.

Staying with this experiment, now noted: inactive by the depositor's call.
`COc1ccc(-c2c(C#N)c(N)n(S(C)(=O)=O)c2C(=O)c2ccccc2)cc1Br` [2-azanyl-4-(3-bromanyl-4-methoxy-phenyl)-1-methylsulfonyl-5-(phenylcarbonyl)pyrrole-3-carbonitrile]: the EC50 is 11.2 µM.

`CC(C)Cc1ccc([C@H](C)C(=O)O)cc1` [(S)-2-(4-Isobutyl-phenyl)-propionic acid] came in with an EC50 of 16.6 µM.

In the case of `N#Cc1c(-c2ccc(Cl)cc2)c(C(=O)c2ccccc2)n(S(=O)(=O)c2ccc([N+](=O)[O-])cc2)c1N` [UNM-0000305780], a half-maximal response (EC50) required 7.21 µM.
